Data: patent US11213498B2, “Aqueous formulation comprising paracetamol and ibuprofen” (Hyloris Pharmaceuticals SA, priority 2014, dated 2022)
Where two headings read alike, the source gives them in different places.

How the values were obtained:
[1] = cited from earlier work
[2] = Dissolution of sodium ibuprofen 2H2O in the formulation Paracetamol - Ibuprofen at varying pH; type: physicochemical
Method: In a further experiment the dissolution of sodium ibuprofen 2H2O was studied in combination with paracetamol at a concentration of 10 mg paracetamol per liter.

[3] = Dissolution of sodium ibuprofen 2H2O alone in water at gradually decreased pH (precipitation observed); type: physicochemical; settings: for Dissolved: 3.85 mg/ml alone in water; for Dissolution: in water after 1 month storage at 25° C.
Method: Precipitation of ibuprofen is observed once pH is at 5.75. The Ibuprofen solutions were stored for 1 month at 25° C. They were again observed for signs of precipitation.

[4] = Dissolution of sodium ibuprofen 2H2O in the formulation Paracetamol - Ibuprofen at varying pH; type: physicochemical; settings: in the formulation 3 mg/ml Paracetamol 10 mg/ml Ibuprofen
[5] = Amount of paracetamol at various points in time and different pH; type: physicochemical; settings: pH range 6.3-7.3, various points in time
Source text: The amount of paracetamol was studied at varies points in time and for different pH's.

Q: Which Precipitation of ibuprofen ([1]; at pH 5.5 to 6.0) does the source give for CC(C)Cc1ccc(C(C)C(=O)O)cc1 (stereo not drawn) [Ibuprofen, 2-(p-isobutylphenyl)propionic acid] here?
A: Its Precipitation of ibuprofen is “precipitates”.

Q: And the Solubility in water [1]?
A: Its Solubility in water is “very poorly soluble”.

Q: With CC(C)Cc1ccc(C(C)C(=O)O)cc1 (stereo not drawn) [sodium ibuprofen 2H2O] as the compound, how does the Dissolution ([2]; 1 month storage at 25° C., pH 6.2) read?
A: Its Dissolution is “No”.

Q: And the Dissolution ([2]; 1 month storage at 25° C., pH 6.3)?
A: The Dissolution was “Yes”.

Q: And the Dissolution ([2]; 1 month storage at 25° C., pH 6.4)?
A: The Dissolution was “Yes”.

Q: What about the Dissolution ([2]; 1 month storage at 25° C., pH 6.6) of the same compound?
A: The Dissolution was “Yes”.

Q: What about the Dissolution ([2]; 1 month storage at 25° C., pH 7) of the same compound?
A: The Dissolution was “Yes”.

Q: What about the Dissolution ([2]; 6 months, 25° C., pH 6.3) of the same compound?
A: The Dissolution was “Yes”.

Q: And the Dissolution ([2]; 6 months, 25° C., pH 6.4)?
A: Its Dissolution is “Yes”.

Q: And the Dissolution ([2]; 6 months, 25° C., pH 6.6)?
A: Its Dissolution is “Yes”.

Q: And the Dissolution ([2]; 6 months, 25° C., pH 7)?
A: The Dissolution was “Yes”.

Q: What about the Dissolved ([3]; pH 3) of the same compound?
A: Its Dissolved is “No”.

Q: And the Dissolved ([3]; pH 4)?
A: Its Dissolved is “No”.

Q: What about the Dissolved ([3]; pH 5) of the same compound?
A: The Dissolved was “No”.

Q: What about the Dissolved ([3]; pH 5.5) of the same compound?
A: Its Dissolved is “No”.

Q: And the Dissolved ([3]; pH 5.8)?
A: The Dissolved was “Yes”.

Q: What about the Dissolved ([3]; pH 6) of the same compound?
A: The Dissolved was “Yes”.

Q: What about the Dissolved ([3]; pH 6.2) of the same compound?
A: Its Dissolved is “Yes”.

Q: And the Dissolved ([3]; pH 6.4)?
A: The Dissolved was “Yes”.

Q: What about the Dissolved ([3]; pH 6.6) of the same compound?
A: The Dissolved was “Yes”.

Q: What about the Dissolved ([3]; pH 6.8) of the same compound?
A: The Dissolved was “Yes”.

Q: And the Dissolved ([3]; pH 7)?
A: Its Dissolved is “Yes”.

Q: And the Dissolved ([3]; pH 7.5)?
A: The Dissolved was “Yes”.

Q: And the “pH at which precipitation of ibuprofen is observed” value ([3]; 3.85 mg/ml in water, pH gradually decreased from 8.80)?
A: The value was 5.75.

Q: And the Dissolution ([3]; pH 5.8)?
A: Its Dissolution is “No”.

Q: What about the Dissolution ([3]; pH 6) of the same compound?
A: The Dissolution was “No”.

Q: And the Dissolution ([3]; pH 6.2)?
A: Its Dissolution is “Yes”.

Q: And the Dissolution ([3]; pH 6.4)?
A: The Dissolution was “Yes”.

Q: What about the Dissolution ([3]; pH 6.6) of the same compound?
A: Its Dissolution is “Yes”.

Q: And the Dissolution ([3]; pH 6.8)?
A: Its Dissolution is “Yes”.

Q: What about the Dissolution ([3]; pH 7) of the same compound?
A: The Dissolution was “Yes”.

Q: And the Dissolution ([3]; pH 7.5)?
A: Its Dissolution is “Yes”.

Q: And the Precipitation ([3]; solution at pH 6, stored for 1 month at 25° C.)?
A: Its Precipitation is “showed precipitation”.

Q: And the Precipitation ([3]; solution at pH 6.2, stored for 1 month at 25° C.)?
A: Its Precipitation is “precipitation was absent”.

Q: What about the Dissolved ([4]; pH 6.2) of the same compound?
A: Its Dissolved is “Yes”.

Q: What about the Dissolved ([4]; pH 6.3) of the same compound?
A: Its Dissolved is “Yes”.

Q: And the Dissolved ([4]; pH 6.4)?
A: The Dissolved was “Yes”.

Q: What about the Dissolved ([4]; pH 6.6) of the same compound?
A: The Dissolved was “Yes”.

Q: And the Dissolved ([4]; pH 7)?
A: Its Dissolved is “Yes”.

Q: For CC(=O)Nc1ccc(O)cc1 [paracetamol, N-(4-hydroxyphenyl)acetamide], which Degradation of paracetamol [5] is on record?
A: Its Degradation of paracetamol is “minimal degradation”.

Q: And the “pH at which rate of degradation of paracetamol is minimal” value ([1]; aqueous solution (Koshy et al., 1961))?
A: The value was about 6.

Q: What about the Degradation of paracetamol ([1]; at pH 7) of the same compound?
A: The Degradation of paracetamol was “significant”.
